Patent publication US12121518B2, “PARP-1 and methods of use thereof” (The Board of Supervisors of Louisiana State University and …, priority 2017, dated 2024)

Assays:
[1] = tested on: trinitrobenzene sulfonic acid-induced colitis; settings: in vivo; cited from earlier work
[2] = tested on: steroid-resistant leukemia cells; test: Steroid-resistant leukemia cells: cell killing and NOTCH levels; type: cell-based; settings: GSI alone: 1 nM PF-3084014 or 25 nM BMS-906024
[3] = 20-30 μM; cited from earlier work
[4] = tested on: ARG-1, iNOS, COX2; test: Immunoblot of ARG-1, iNOS, COX2 and related factors in bone marrow-derived MDSCs; type: cell-based, mouse; settings: day 2 to day 4 of differentiation
Description: (I) Positive control for PARP-1 trapping.
Cell fractionation, protein extraction and immunoblot analysis—Tumor tissues or cells were harvested and homogenized in RIPA lysis buffer (Santa Cruz Biotechnology) containing a cocktail of protease and phosphatase inhibitors on ice. Nuclear fractions were isolated as described (35) and the remaining chromatin pellets were washed then suspended in an isotonic buffer followed by sonication. […] Protein expression signals developed by ECL (Pierce, ThermoFisher Scientific) were determined by a G:Box Gel Image Analysis System (Syngene, Cambridge, UK) equipped with the GeneSys image capture software.

[5] = tested on: bone marrow-derived MDSCs; test: Bone marrow-derived MDSC differentiation in vitro: viability and CD11b/Gr1 phenotype by FACS; settings: 1 μM
[6] = in vivo; cited from earlier work

SMILES: NC(=O)c1cccc(N)c1 [3-aminobenzamide]
- colitis [1]: protection

SMILES: CN1C(=O)[C@@H](NC(=O)[C@H](CCC(F)(F)F)[C@H](CCC(F)(F)F)C(N)=O)N=C(c2ccccc2)c2ccccc21 [BMS-906024]
- NOTCH1 levels or cell proliferation of leukemia cells [2]: do not have major effects

SMILES: CCC[C@H](N[C@H]1CCc2cc(F)cc(F)c2C1)C(=O)Nc1cn(C(C)(C)CNCC(C)(C)C)cn1 [PF-3084014]
- NOTCH1 levels or cell proliferation of leukemia cells [2]: do not have major effects

SMILES: O=c1[nH]c2sccc2c2ccccc12 [TIQ-A]
- cytotoxicity [3]: cytotoxic

SMILES: NC(=O)c1cccc2cn(-c3ccc([C@@H]4CCCNC4)cc3)nc12 [niraparib]
- expression of Arg1 in BM-MDSCs ([4]; 4 nM): blocked expression of Arg1

SMILES: CNCc1ccc(-c2[nH]c3cc(F)cc4c3c2CCNC4=O)cc1 [rucaparib]
- MDSC population (CD11b+/Gr1+) at day 4 [5]: appears to increase MDSC population
- expression of Arg1 in BM-MDSCs ([4]; 4 nM): blocked expression of Arg1

SMILES: Cn1ncnc1[C@H]1c2n[nH]c(=O)c3cc(F)cc(c23)N[C@@H]1c1ccc(F)cc1 [talazoparib]
- expression of Arg1 in BM-MDSCs ([4]; 0.4 nM): blocked expression of Arg1
- maximum tolerated dose [6]: 1 mg/day

SMILES: C[C@]1(c2nc3c(C(N)=O)cccc3[nH]2)CCCN1 [velaparib]
- expression of Arg1 in BM-MDSCs ([4]; 4 nM): blocked expression of Arg1
